Laboratory results from ChEMBL document CHEMBL1127784, “Design and synthesis of peptidomimetic inhibitors of HIV-1 protease and renin. Evidence for improved transport” (J Med Chem, 1994).

Columns and labels:
[1] = target: Human immunodeficiency virus type 1 protease (Human immunodeficiency virus 1) (UniProt Q72874); assay: Tested for the relative potency against HIV-1 protease in the cellular antiviral assay
Renin = target: T1, Renin (Homo sapiens, UniProt P00797); assay: In vitro inhibitory concentration against renin
T1 sequence (P00797 whole entry): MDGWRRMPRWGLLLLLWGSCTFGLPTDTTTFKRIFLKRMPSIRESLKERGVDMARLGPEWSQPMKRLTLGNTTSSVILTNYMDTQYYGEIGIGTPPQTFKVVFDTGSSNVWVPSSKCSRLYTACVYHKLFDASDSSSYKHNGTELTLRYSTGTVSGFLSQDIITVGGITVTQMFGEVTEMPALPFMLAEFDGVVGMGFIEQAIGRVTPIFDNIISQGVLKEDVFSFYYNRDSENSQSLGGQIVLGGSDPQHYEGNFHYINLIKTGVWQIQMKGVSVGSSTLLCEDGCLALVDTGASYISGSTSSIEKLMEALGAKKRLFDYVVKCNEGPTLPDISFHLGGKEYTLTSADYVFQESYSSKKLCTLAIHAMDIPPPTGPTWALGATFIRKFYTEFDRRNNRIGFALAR

[2] = target: Human immunodeficiency virus type 1 protease (Human immunodeficiency virus 1, UniProt Q72874); assay: In vitro inhibitory concentration against HIV-1 protease

SMILES	IC95 [1] [nM]	IC50 (Renin) [nM]	IC50 [2] [nM]
CC(C)C[C@H](NC(=O)[C@H](Cc1ccccc1)C[C@H](O)[C@H](Cc1ccccc1)NC(=O)OC(C)(C)C)C(=O)N[C@@H](Cc1ccccc1)C(N)=O	6000		
CC(C)C[C@@]1(C2=C(O)[C@](Cc3ccccc3)(C[C@H](O)[C@H](Cc3ccccc3)NC(=O)OC(C)(C)C)N=C2)N=CC([C@@H](Cc2ccccc2)C(N)=O)=C1O	1500		10
CC(C)C[C@@]1(C2=C(O)[C@](Cc3ccccc3)(C[C@H](O)[C@H](Cc3ccccc3)NC(=O)O[C@@H]3CCOC3)N=C2)N=CC([C@@H](Cc2ccccc2)C(N)=O)=C1O	800		1.3

Other lines, results leading:

IC95 [1] [nM]	IC50 (Renin) [nM]	IC50 [2] [nM]	SMILES
	18000		CC(C)C[C@H](O)[C@H](O)[C@H](CC1CCCCC1)C1=C(O)[C@](CC(C)C)(C2=C(O)[C@@](CC(=O)N3CCOCC3)(Cc3ccccc3)N=C2)N=C1
	600		CC(C)C[C@@H](C(=O)N[C@@H](CC1CCCCC1)[C@@H](O)[C@@H](O)CC(C)C)C1=C(O)[C@@](CC(=O)N2CCOCC2)(Cc2ccccc2)N=C1
